Experimental findings from PubChem BioAssay AID179 (DTP/NCI, 2004) are described below.

The subject of the assay is CEM cells HIV-1 protection, formazan growth assay. The experiment in a line: NCI AIDS Antiviral Assay. The conditions noted are these: for IC50: measured here: growth of uninfected CEM cells. The gist of the method:
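Screen of anti-HIV-1 activity in human CEM cells using a formazan-based growth measurement at five drug concentrations. Hits with 50% or greater protection were repeated, and confirmation required reproducible complete protection.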

Where “and” joins values, the source holds several entries; their conditions need not be identical. Identical values can stand only once. Calls of active or inactive are those of the source.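 Rule for the calls: active = compounds giving half or more protection of infected cells from virus-caused growth loss, again on retest; inactive = the rest.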 Where a SMILES comes first, the peptide text is derived from it. [ ]: non-standard residue; d: D form. The star is where a group is joined. ξ: configuration not given here. ξF = NC(Cc1ccccc1)C(=O)O; Cbz = O=C(OCc1ccccc1)*; Aib = CC(C)(N)C(=O)O; NHNH2 = NN* Bounds are passed on as bounds.

For `CCCCCCCCC1=C(OC)C(=O)c2ccc(C)nc2C1=O`, the outcome was inactive.
`COC1/C=C/OC2(C)Oc3c(C)c(OC(C)=O)c4c(c3C2=O)C(=O)C=C(NC(=O)/C(C)=C\C=C\C(C)C(OC(C)=O)C(C)C(O)C(C)C(OC(C)=O)C1C)C4=O` (stereo not drawn): the EC50 was greater than 200 µM and the half-inhibitory concentration (IC50) was 3.02 µM.
Turning to `Cc1ccc(S(=O)S(=O)c2ccc(C)cc2)cc1` (stereo not drawn), the result was inactive.
For the molecule `C/C(C=O)=C\c1cccc(F)c1`, the EC50 is greater than 158 µM and the IC50 is greater than 158 µM.
Regarding `CCOC(=O)/C=C/c1ccc(F)cc1`, the EC50 was greater than 97.7 µM and the concentration for half-maximal inhibition (IC50) is greater than 97.7 µM.
On to `NC(=O)C(NN=C1c2ccccc2-c2ccccc21)(c1ccccc1)c1ccccc1`, for which the EC50 was greater than 200 µM and the IC50 turned out to be 28.2 µM.
For the molecule `CSC1(SC)CCCCCCCCCCC1`, the EC50 was greater than 200 µM and the IC50 was 158 µM.
For the molecule `O=[N+]([O-])c1ccc2c(N=Nc3ccc4ccccc4c3O)c(O)cc(S(=O)(=O)O)c2c1`, the EC50 was greater than 200 µM and the half-inhibitory concentration (IC50) was 27.5 µM.
For the molecule `Cc1ccc(-c2c(C#N)c(-c3ccc(Cl)cc3)c(C#N)c(=O)n2NS(=O)(=O)c2ccccc2)cc1`, the EC50 is greater than 200 µM and the IC50 amounted to 29.5 µM.
As for `Cc1nnc2sc(Cl)nn12`, the EC50 is greater than 200 µM and the IC50 turned out to be 6.17 µM.
Take `CCCCCCCCCc1ccc(Oc2ccc3c(c2)-c2nc-3nc3[nH]c(nc4nc(nc5[nH]c(n2)c2ccc(Oc6ccc(CCCCCCCCC)cc6)cc52)-c2cc(Oc5ccc(CCCCCCCCC)cc5)ccc2-4)c2ccc(Oc4ccc(CCCCCCCCC)cc4)cc32)cc1`: the EC50 is greater than 13.5 µM and the half-inhibitory concentration (IC50) was greater than 13.5 µM.
Take `COc1ccc([C@H]2Oc3cc(O)cc(O)c3C(=O)[C@@H]2[C@H]2C(=O)c3c(O)cc(OC)cc3O[C@@H]2c2ccc(OC)cc2)cc1`: the EC50 is greater than 200 µM and the IC50 amounted to 110 µM.
As to `Cn1cnc([N+](=O)[O-])c1Sc1nnnn1-c1ccccc1`, the EC50 was greater than 224 µM and the IC50 was 10.7 µM.
With `NC(=O)NNCc1c(-c2ccccc2)no[n+]1[O-]`, the EC50 was greater than 200 µM and the IC50 was greater than 200 µM.
Consider `O=C1NC(=O)C(=Cc2cccc(Br)c2)C(=O)N1`, for which the EC50 is greater than 123 µM and the half-inhibitory concentration (IC50) was greater than 123 µM.
With `O=[N+]([O-])c1ccc(-c2noc(-c3ccc(Cl)cc3)c2C2=NCCCN2)cc1`, the EC50 was greater than 35.5 µM and the IC50 is greater than 35.5 µM.
In the case of `Cn1ccc2c(C(=O)c3ccccc3)cccc2c1=O`, the outcome was inactive.
Take `N#C/C(=C\c1ccccc1Cl)c1ccccc1`: the EC50 is greater than 200 µM and the half-inhibitory concentration (IC50) came to 72.4 µM.
As to `Cc1ccc(/C=C/CO)cc1`, the result was inactive.
Turning to `CCCCn1c(-c2ccccc2)cs/c1=N\N=C1C=C(C(C)(C)C)C(=O)C(C(C)(C)C)=C1`, the EC50 was greater than 15.8 µM and the half-maximal inhibitory concentration (IC50) was greater than 15.8 µM.
In the case of `Cc1ccc(-n2cc(-c3ccc(Cl)cc3)c3c(=N)n(N)cnc32)cc1`, the EC50 was greater than 100 µM and the IC50 amounted to 13.5 µM.
On to `CCn1c(N)c(N=O)c(=O)n(C)c1=O`, for which the EC50 is greater than 200 µM and the half-maximal inhibitory concentration (IC50) is greater than 200 µM.
Consider `COc1ccc2oc(=S)[nH]c2c1`, for which the EC50 is greater than 200 µM and the IC50 is greater than 200 µM.
On to `COc1cc2c(cc1OC)NCc1ccccc1NCc1cc(OC)c(OC)cc1NCc1ccccc1NC2`, for which the EC50 was greater than 200 µM and the IC50 was found to be 107 µM.
Turning to `COc1cccc(/C=N/[N-]C(N)=O)c1[O-].[Co+2].[OH3+]`, the EC50 was greater than 126 µM and the IC50 was found to be 61.7 µM.
Regarding `O=C1C(C(O)(C(F)(F)Cl)C(F)(F)Cl)CCC1C(O)(C(F)(F)Cl)C(F)(F)Cl` (stereo not drawn), the EC50 was greater than 200 µM and the IC50 came to 4.37 µM.
With `O=S(=O)(c1ccccc1)C1(Sc2ccccc2)CC(Br)[C@@H](Br)C1` (stereo partly drawn), the EC50 is greater than 15.1 µM and the 50% inhibitory concentration (IC50) was greater than 15.1 µM.
For the molecule `Cc1ncc(CO)c(CO)c1OCC(O)CN1CCN(C(=O)c2ccccc2)CC1` (stereo not drawn), the EC50 is greater than 200 µM and the IC50 was greater than 200 µM.
For `O=C(CC1C(=O)Nc2ccccc2S1(=O)=O)Nc1cccc(Cl)c1` (stereo not drawn), the EC50 is greater than 27.5 µM and the IC50 was greater than 27.5 µM.
In the case of `CC1=CC(=O)c2ccc3c4ccccc4n(C)c3c2C1=O`, the EC50 is greater than 26.3 µM and the IC50 is greater than 26.3 µM.
For the molecule `C1CCC2C(C1)CCCC2NC1=NCCO1` (stereo not drawn), the EC50 is greater than 200 µM and the IC50 worked out at 115 µM.
With `S=C1SSC(=S)SS1`, the EC50 was greater than 33.1 µM and the concentration for half-maximal inhibition (IC50) is greater than 33.1 µM.
For the molecule `CCOC(=O)/C(C#N)=C/c1cccc(C)c1`, the EC50 is greater than 120 µM and the IC50 was greater than 120 µM.
`C[CH2][Ge]1([CH2]C)[CH2]CC2(CCN(CCCN(C)C)C2)C[CH2]1`: the EC50 is greater than 251 µM and the IC50 stood at 1.38 µM.
Regarding `O=C(/C=C/c1ccc(C(F)(F)F)cc1)c1c([O-])on[n+]1-c1ccccc1`, the outcome was inactive.
As for `NC(=O)c1cccc(OCC(O)CO)c1` (stereo not drawn), the EC50 is greater than 200 µM and the IC50 is greater than 200 µM.
On to `CC1=Nc2cc(C)c(C)cc2NC(=O)C1`, for which the EC50 is greater than 200 µM and the IC50 was greater than 200 µM.
For `COc1cccc(NC(=O)CC(=O)n2nc(C)c(N=Nc3ccccc3F)c2C)c1`, the outcome was inactive.
On to `CN(C)c1nc2n(CCO)ccnc-2c(=O)n1`, for which the EC50 was greater than 100 µM and the IC50 was greater than 100 µM.
As to `COC(=O)c1cc(C(=O)OC)c(C/C(=N/NC(=O)C[N+](C)(C)C)C(=O)Nc2cccc(C(F)(F)F)c2)nc1C/C(=N/NC(=O)C[N+](C)(C)C)C(=O)Nc1cccc(C(F)(F)F)c1`, the EC50 was greater than 200 µM and the half-maximal inhibitory concentration (IC50) is 105 µM.
As to `COc1ccc(/C(O)=C/c2nc3ccccc3n2C)cc1`, the EC50 was greater than 178 µM and the IC50 was determined as 74.1 µM.
As for `Cc1nc2[nH]ncn2c(=O)c1CCCl`, the EC50 was greater than 200 µM and the IC50 worked out at 34.7 µM.
On to `Cc1cc(NS(=O)(=O)c2ccc(Nc3c4ccccc4nc4c(C(=O)NCC#N)cccc34)cc2)no1`, for which the EC50 is greater than 200 µM and the half-maximal inhibitory concentration (IC50) was found to be 10.7 µM.
Consider `O=C(O)CCCCCCC(=O)O`, for which the EC50 was greater than 1450 µM and the IC50 is greater than 1450 µM.
`CNc1ccc(Cl)cc1S(=O)(=O)c1ccc(OC)cc1`: the EC50 was greater than 200 µM and the 50% inhibitory concentration (IC50) was determined as 2.14 µM.
Consider `Cc1cccc(C)c1NC(=O)CCc1nc(=S)[nH][nH]1`, for which the EC50 was greater than 468 µM and the half-inhibitory concentration (IC50) was greater than 468 µM.
Consider `C[N+](C)(C)CC(=O)N/N=C(/CC(=O)CC(C1=C(O)c2ccccc2OC1)c1ccccc1)C(=O)Nc1cccc(Cl)c1` (stereo not drawn), for which the EC50 was greater than 151 µM and the IC50 is greater than 151 µM.
With `CC(C)(NC(=O)OCc1ccccc1)C(=O)NC(Cc1ccccc1)C(=O)NN` (stereo not drawn) (Cbz-[Aib]-[ξF]-NHNH2), the EC50 is greater than 200 µM and the IC50 is greater than 200 µM.
For the molecule `C=C(CCCO)[C@@H]1CC[C@@](C)(O)[C@H]1C`, the outcome was inactive.
Turning to `O=S(=O)(N/N=C/c1ccc(Cl)cc1Cl)c1ccccc1`, the outcome was inactive.
As for `CSc1nc(C#N)c(N)n1C`, the EC50 is greater than 200 µM and the 50% inhibitory concentration (IC50) is greater than 200 µM.
For `C/C(CN1C(=O)c2ccccc2C1=O)=N\NS(=O)(=O)c1ccc(F)cc1`, the EC50 is greater than 479 µM and the IC50 is greater than 479 µM.
Turning to `COC(=O)OC[C@H]1O[C@@H](n2cc(C)c(=O)[nH]c2=O)CC1OC(=O)OC` (stereo partly drawn), the EC50 is greater than 200 µM and the half-maximal inhibitory concentration (IC50) is greater than 200 µM.
Regarding `O=c1cc(-c2ccccc2)oc2ccccc12`, the EC50 is greater than 135 µM and the IC50 stood at 75.9 µM.
On the same counts, the results for `CCOC(=O)c1cccc([N+](=O)[O-])c1N` are greater than 200 µM and greater than 200 µM.
Take `O=C(O)c1ccccc1-c1c2cc(Br)c(=O)c(Br)c-2oc2c(Br)c(O)c(Br)cc12`: the 50% effective concentration (EC50) is greater than 200 µM; the half-maximal inhibitory concentration (IC50) was 21.9 µM and 35.5 µM.
With `O=c1cc(O)c2ccc(O)cc2o1`, the EC50 was greater than 40.7 µM and the IC50 is greater than 40.7 µM.
`N#Cc1nc(C(=O)c2ccccc2)oc1N`: the EC50 was greater than 200 µM and the IC50 is greater than 200 µM.
As to `COCN1C(=O)[C@@H]2CCCN2C(=O)c2ccc(N)cc21`, the EC50 was greater than 200 µM and the concentration for half-maximal inhibition (IC50) was greater than 200 µM.
For `CC1=C(C#N)C(=C(C#N)C#N)OC1(C)Cc1ccccc1` (stereo not drawn), the EC50 is greater than 200 µM and the IC50 was found to be 112 µM.
On the same counts, the results for `CSC1(C)CC2C(CC1N1CCCCC1)C2(C)C` (stereo not drawn) are greater than 93.3 µM and 44.7 µM.
With `c1ccc2c3c([nH]c2c1)C1CCCN1CC3` (stereo not drawn), the EC50 is greater than 617 µM and the IC50 is 174 µM.
Consider `CCOC(=O)c1ccc(CSc2ccc([N+](=O)[O-])cc2)cc1`, for which the EC50 is greater than 6.31 µM and the 50% inhibitory concentration (IC50) was greater than 6.31 µM.
On to `CNC(=O)NCCN1CC2CCC(CC2)C1`, for which the EC50 is greater than 200 µM and the half-inhibitory concentration (IC50) is greater than 200 µM.
Turning to `Cc1nn(-c2cc(Cl)ccc2[N+](=O)[O-])c(C)c1Cl`, the EC50 was greater than 200 µM and the IC50 is 166 µM.
With `CCN1CCC(O)(/C=C/c2ccc(OC)cc2)C(C(=O)/C=C/c2ccc(OC)cc2)C1` (stereo not drawn), the EC50 is greater than 479 µM and the IC50 was greater than 479 µM.
Turning to `CC(=O)CSc1sc(C(C)=O)c(N)c1C#N`, the EC50 was greater than 200 µM and the IC50 was greater than 200 µM.
For `O=c1[nH]c2c(O)cccc2c2cc3c(c(O)c12)OCO3`, the outcome was inactive.
Same read-out and setting: the same measure for `CC(=O)C(C)(C)CCC(C)(C)C(C)=O`: “inactive”; for `COC(=O)/C(C=O)=C/Sc1ccccc1`: “inactive”.
On to `CCCCNC(=O)OCCN=C1c2ccccc2C(Br)C(Br)c2ccccc21` (stereo not drawn), for which the EC50 was greater than 200 µM and the half-inhibitory concentration (IC50) was found to be 26.9 µM.
In the case of `CCCCCCCCCCCCC/C=C/[C@@H](OC(=O)c1ccccc1)C(CO)N=[N+]=[N-]` (stereo partly drawn), the result was inactive.
In the case of `COc1ccc2c(c1)[nH]c(=O)c1c3ccccc3[nH]c21`, the EC50 is greater than 200 µM and the 50% inhibitory concentration (IC50) is 145 µM.
Regarding `CC(C)(C)[Si](C)(C)OCC1OC(n2ccc(=O)[nH]c2=O)C(O[Si](C)(C)C(C)(C)C)/C1=N/O` (stereo not drawn), the EC50 was greater than 200 µM and the half-inhibitory concentration (IC50) amounted to 4.07 µM.
In the case of `c1ccc(C2=Nc3ccccc3N=C3CCCC32)cc1` (stereo not drawn), the EC50 is greater than 200 µM and the half-maximal inhibitory concentration (IC50) is greater than 200 µM.

The EC50 is the concentration needed to bring the measured effect to its halfway point. As a reminder, the IC50 is the concentration that gives 50% inhibition. Higher therefore signals lower potency.
